This note sets out measurements from patent US20250179032A1, “HETEROCYCLIC INHIBITORS OF GLUT9 FOR TREATMENT OF DISEASE” (HORIZON THERAPEUTICS IRELAND DAC, priority 2022, published 2025).

In this experiment the target is T1, H. sapiens SLC2A9 variant 2 (GLUT9B) (Homo sapiens, UniProt Q9NRM0).
T1 sequence (Q9NRM0 1-511 isoform Q9NRM0-2): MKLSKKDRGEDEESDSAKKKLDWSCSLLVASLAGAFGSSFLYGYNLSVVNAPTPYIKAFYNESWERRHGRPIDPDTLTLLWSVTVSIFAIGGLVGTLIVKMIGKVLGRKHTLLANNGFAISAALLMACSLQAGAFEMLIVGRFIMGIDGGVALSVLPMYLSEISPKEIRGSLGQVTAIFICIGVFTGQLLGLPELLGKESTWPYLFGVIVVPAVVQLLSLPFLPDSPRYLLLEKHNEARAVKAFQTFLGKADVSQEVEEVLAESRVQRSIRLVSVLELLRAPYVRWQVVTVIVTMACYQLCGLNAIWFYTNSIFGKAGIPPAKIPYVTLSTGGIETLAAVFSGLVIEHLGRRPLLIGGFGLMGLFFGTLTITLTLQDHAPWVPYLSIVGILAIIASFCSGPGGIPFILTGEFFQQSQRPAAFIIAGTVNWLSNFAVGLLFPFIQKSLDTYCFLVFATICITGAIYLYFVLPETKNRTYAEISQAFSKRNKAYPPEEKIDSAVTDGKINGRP
The experiment in a line: GLUT9 functional assay: uric acid uptake in HEK293T cells, allantoin formation by MS/MS as proxy of GLUT9B inhibition. It counts as cell-based. Particulars: 60 minute assay; HEK293T cells stably expressing GLUT9B and transiently A. oryzae uricase; uric acid 0.3 mM, 37° C.; read-out: 60 min IC50. The gist of the method: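 HEK293T cells stably expressing human GLUT9B and transiently expressing A. oryzae uricase, exposed across a 12-point curve to 0.3 mM uric acid (Km) in sodium gluconate buffer pH 7.4 for 15 or 60 min at 37° C. Allantoin in lysates quantified by RapidFire MS/MS (positive ion) against a matrix-matched standard curve as proxy for uptake.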
A word on the IC50: it is the point on the concentration scale where inhibition reaches its midpoint. On to `COCCCc1cnc(-c2ccc3occ(C)c3c2)c(N2CCC(C(=O)O)CC2)n1` [Compound 242, 1-(6-(3-methoxypropyl)-3-(3-methylbenzofuran-5-yl)pyrazin-2-yl)piperidine-4-carboxylic acid], for which the half-inhibitory concentration (IC50) was 0.5 to 2 µM.
Turning to `COCCCc1cnc(-c2cc(F)c3occc3c2)c(N2CCCC(C(=O)O)CC2)n1` (stereo not shown) [Compound 243, 1-(3-(7-fluorobenzofuran-5-yl)-6-(3-methoxypropyl)pyrazin-2-yl)azepane-4-carboxylic acid], the IC50 was below 0.5 µM.
As for `COCCCc1cnc(-c2cc(F)c3c(c2)OCO3)c(N2CCCC(C(=O)O)CC2)n1` (stereo not shown) [Compound 244, 1-(3-(7-fluorobenzo[d][1,3]dioxol-5-yl)-6-(3-methoxypropyl)pyrazin-2-yl)azepane-4-carboxylic acid], the figure is below 0.5 µM; as for `COCCCc1cnc(-c2cc(F)c3occc3c2)c(N2CCCC(C(=O)O)CC2)c1` (stereo not shown) [Compound 245, 1-(2-(7-Fluorobenzofuran-5-yl)-5-(3-Methoxypropyl)Pyridin-3-yl)azepane-4-carboxylic acid], below 0.5 µM.
As for `COCCCc1cnc(-c2cc(F)c3c(c2)OCO3)c(N2CCCC(C(=O)O)CC2)c1` (stereo not shown) [Compound 246, 1-(2-(7-fluorobenzo[d][1,3]dioxol-5-yl)-5-(3-methoxypropyl)pyridin-3-yl)azepane-4-carboxylic acid], the figure is below 0.5 µM; as for `COCCCc1cnc(-c2ccc3c(c2)OCO3)c(N2CCC3(CC(C(=O)O)C3)C2)c1` (stereo not shown) [Compound 247, 6-(2-(benzo[d][1,3]dioxol-5-yl)-5-(3-methoxypropyl)pyridin-3-yl)-6-azaspiro[3.4]octane-2-carboxylic acid], 0.5 to 2 µM; as for `COCCCc1cnc(-c2ccc3c(c2)OCO3)c(N2CC3(CC(C(=O)O)CO3)C2)c1` (stereo not shown) [Compound 249, 2-(2-(benzo[d][1,3]dioxol-5-yl)-5-(3-methoxypropyl)pyridin-3-yl)-5-oxa-2-azaspiro[3.4]octane-7-carboxylic acid], above 2 µM.
`COCCCc1cnc(-c2ccc3c(c2)OCO3)c(N2CC3(CC(C(=O)O)C3)C2)c1` [Compound 250, 2-(2-(benzo[d][1,3]dioxol-5-yl)-5-(3-methoxypropyl)pyridin-3-yl)-2-azaspiro[3.3]heptane-6-carboxylic acid]: the IC50 is above 2 µM.
Consider `COCCCc1cnc(-c2ccc3c(c2)OCO3)c(N2CC(C(=O)O)C2)c1` [Compound 251, 1-(2-(benzo[d][1,3]dioxol-5-yl)-5-(3-methoxypropyl)pyridin-3-yl)azetidine-3-carboxylic acid], for which the half-maximal inhibitory concentration (IC50) was above 2 µM.
As for `COCCCc1cnc(-c2ccc3c(c2)OCO3)c(N2CC(OC)(C(=O)O)C2)c1` [Compound 252, 1-(2-(benzo[d][1,3]dioxol-5-yl)-5-(3-methoxypropyl)pyridin-3-yl)-3-methoxyazetidine-3-carboxylic acid], the figure is above 2 µM.
Next, `COCCCc1cnc(-c2ccc3occ(Cl)c3c2)c(N2CCC(C(=O)O)CC2)n1` [Compound 253, 1-(3-(3-chlorobenzofuran-5-yl)-6-(3-methoxypropyl)pyrazin-2-yl)piperidine-4-carboxylic acid]: below 0.5 µM; `COCCCc1cnc(-c2ccc(SC)cc2)c(N2CCC(C(=O)O)CC2)n1` [Compound 254, 1-(6-(3-methoxypropyl)-3-(4-(methylthio)phenyl)pyrazin-2-yl)piperidine-4-carboxylic acid]: below 0.5 µM; `COCCCc1cnc(-c2ccc(F)c(F)c2)c(N2CCC(C(=O)O)CC2)n1` [Compound 255, 1-(3-(3,4-difluorophenyl)-6-(3-methoxypropyl)pyrazin-2-yl)piperidine-4-carboxylic acid]: 0.5 to 2 µM.
